Experiments:
Assay in all cases: Test E pre-/postemergence plant response
Assay type in all cases: in vivo
[1] = system: barnyardgrass (Echinochloa crus-galli); conditions: scale 0 to 100
Summary of the method: (§1)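 Visual rating 0–100 vs untreated controls (0 = no effect, 100 = complete control) after 14–21 d greenhouse. Pre- and postemergence treatments; compound in non-phytotoxic solvent mix + surfactant. Post plants 2–18 cm, 1- to 4-leaf stage.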

[2] = system: bermudagrass (Cynodon dactylon); conditions: scale 0 to 100
Summary of the method: as §1

[3] = system: black mustard (Brassica nigra); conditions: scale 0 to 100
Summary of the method: as §1

[4] = system: common chickweed (Stellaria media); conditions: Postemergence, scale 0 to 100
Summary of the method: as §1

[5] = system: common groundsel (Senecio vulgaris); conditions: Postemergence, scale 0 to 100
Summary of the method: as §1

[6] = system: common purslane (Portulaca oleracea); conditions: scale 0 to 100
Summary of the method: as §1

[7] = system: dallisgrass (Paspalum dilatatum); conditions: scale 0 to 100
Summary of the method: as §1

[8] = system: goosegrass (Eleusine indica); conditions: scale 0 to 100
Summary of the method: as §1

[9] = system: green foxtail (Setaria viridis); conditions: scale 0 to 100
Summary of the method: as §1

[10] = system: johnsongrass (Sorghum halepense); conditions: scale 0 to 100
Summary of the method: as §1

[11] = system: large crabgrass (Digitaria sanguinalis); conditions: scale 0 to 100
Summary of the method: as §1

[12] = system: quackgrass (Elytrigia repens); conditions: scale 0 to 100
Summary of the method: as §1

[13] = system: southern (S.) sandbur (Cenchrus echinatus); conditions: scale 0 to 100
Summary of the method: as §1

[14] = system: surinam grass (Brachiaria decumbens); conditions: scale 0 to 100
Summary of the method: as §1

SMILES: Cn1ncc(O)c(-c2nn(-c3ccc(Cl)cc3)cc2Br)c1=O [Compound 31]
- Plant response rating, Barnyardgrass ([1]; 8 g ai/ha, Preemergence): 0
- Plant response rating, Barnyardgrass ([1]; 16 g ai/ha, Preemergence): 15
- Plant response rating, Barnyardgrass ([1]; 31 g ai/ha, Preemergence): 75
- Plant response rating, Barnyardgrass ([1]; 62 g ai/ha, Preemergence): 90
- Plant response rating, Barnyardgrass ([1]; Postemergence, 8 g ai/ha): 35
- Plant response rating, Barnyardgrass ([1]; Postemergence, 16 g ai/ha): 70
- Plant response rating, Barnyardgrass ([1]; Postemergence, 31 g ai/ha): 75
- Plant response rating, Barnyardgrass ([1]; Postemergence, 62 g ai/ha): 100
- Plant response rating, Bermudagrass ([2]; 8 g ai/ha, Preemergence): 0
- Plant response rating, Bermudagrass ([2]; 16 g ai/ha, Preemergence): 75
- Plant response rating, Bermudagrass ([2]; 31 g ai/ha, Preemergence): 95
- Plant response rating, Bermudagrass ([2]; 62 g ai/ha, Preemergence): 100
- Plant response rating, Bermudagrass ([2]; Postemergence, 8 g ai/ha): 65
- Plant response rating, Bermudagrass ([2]; Postemergence, 16 g ai/ha): 75
- Plant response rating, Bermudagrass ([2]; Postemergence, 31 g ai/ha): 90
- Plant response rating, Bermudagrass ([2]; Postemergence, 62 g ai/ha): 95
- Plant response rating, Mustard, Black ([3]; 8 g ai/ha, Preemergence): 0
- Plant response rating, Mustard, Black ([3]; 16 g ai/ha, Preemergence): 0
- Plant response rating, Mustard, Black ([3]; 31 g ai/ha, Preemergence): 0
- Plant response rating, Mustard, Black ([3]; 62 g ai/ha, Preemergence): 0
- Plant response rating, Mustard, Black ([3]; Postemergence, 8 g ai/ha): 0
- Plant response rating, Mustard, Black ([3]; Postemergence, 16 g ai/ha): 0
- Plant response rating, Mustard, Black ([3]; Postemergence, 31 g ai/ha): 0
- Plant response rating, Mustard, Black ([3]; Postemergence, 62 g ai/ha): 0
- Plant response rating, Chickweed ([4]; 8 g ai/ha): 0
- Plant response rating, Chickweed ([4]; 16 g ai/ha): 0
- Plant response rating, Chickweed ([4]; 31 g ai/ha): 0
- Plant response rating, Groundsel ([5]; 8 g ai/ha): 0
- Plant response rating, Groundsel ([5]; 16 g ai/ha): 0
- Plant response rating, Purslane ([6]; 16 g ai/ha, Preemergence): 0
- Plant response rating, Purslane ([6]; 31 g ai/ha, Preemergence): 0
- Plant response rating, Purslane ([6]; 62 g ai/ha, Preemergence): 0
- Plant response rating, Purslane ([6]; Postemergence, 8 g ai/ha): 0
- Plant response rating, Purslane ([6]; Postemergence, 16 g ai/ha): 0
- Plant response rating, Purslane ([6]; Postemergence, 31 g ai/ha): 0
- Plant response rating, Purslane ([6]; Postemergence, 62 g ai/ha): 0
- Plant response rating, Dallisgrass ([7]; 8 g ai/ha, Preemergence): 0
- Plant response rating, Dallisgrass ([7]; 16 g ai/ha, Preemergence): 15
- Plant response rating, Dallisgrass ([7]; 31 g ai/ha, Preemergence): 75
- Plant response rating, Dallisgrass ([7]; 62 g ai/ha, Preemergence): 98
- Plant response rating, Dallisgrass ([7]; Postemergence, 8 g ai/ha): 35
- Plant response rating, Dallisgrass ([7]; Postemergence, 16 g ai/ha): 40
- Plant response rating, Dallisgrass ([7]; Postemergence, 31 g ai/ha): 60
- Plant response rating, Dallisgrass ([7]; Postemergence, 62 g ai/ha): 70
- Plant response rating, Goosegrass ([8]; 8 g ai/ha, Preemergence): 20
- Plant response rating, Goosegrass ([8]; 16 g ai/ha, Preemergence): 35
- Plant response rating, Goosegrass ([8]; 31 g ai/ha, Preemergence): 100
- Plant response rating, Goosegrass ([8]; 62 g ai/ha, Preemergence): 100
- Plant response rating, Goosegrass ([8]; Postemergence, 8 g ai/ha): 35
- Plant response rating, Goosegrass ([8]; Postemergence, 16 g ai/ha): 50
- Plant response rating, Goosegrass ([8]; Postemergence, 31 g ai/ha): 70
- Plant response rating, Goosegrass ([8]; Postemergence, 62 g ai/ha): 75
- Plant response rating, Foxtail, Green ([9]; 8 g ai/ha, Preemergence): 0
- Plant response rating, Foxtail, Green ([9]; 16 g ai/ha, Preemergence): 5
- Plant response rating, Foxtail, Green ([9]; 31 g ai/ha, Preemergence): 60
- Plant response rating, Foxtail, Green ([9]; 62 g ai/ha, Preemergence): 90
- Plant response rating, Foxtail, Green ([9]; Postemergence, 8 g ai/ha): 50
- Plant response rating, Foxtail, Green ([9]; Postemergence, 16 g ai/ha): 60
- Plant response rating, Foxtail, Green ([9]; Postemergence, 31 g ai/ha): 70
- Plant response rating, Foxtail, Green ([9]; Postemergence, 62 g ai/ha): 75
- Plant response rating, Johnsongrass ([10]; 16 g ai/ha, Preemergence): 25
- Plant response rating, Johnsongrass ([10]; 31 g ai/ha, Preemergence): 80
- Plant response rating, Johnsongrass ([10]; 62 g ai/ha, Preemergence): 98
- Plant response rating, Johnsongrass ([10]; Postemergence, 8 g ai/ha): 40
- Plant response rating, Johnsongrass ([10]; Postemergence, 16 g ai/ha): 60
- Plant response rating, Johnsongrass ([10]; Postemergence, 31 g ai/ha): 75
- Plant response rating, Johnsongrass ([10]; Postemergence, 62 g ai/ha): 100
- Plant response rating, Crabgrass, Large ([11]; 8 g ai/ha, Preemergence): 0
- Plant response rating, Crabgrass, Large ([11]; 16 g ai/ha, Preemergence): 40
- Plant response rating, Crabgrass, Large ([11]; 31 g ai/ha, Preemergence): 75
- Plant response rating, Crabgrass, Large ([11]; 62 g ai/ha, Preemergence): 95
- Plant response rating, Crabgrass, Large ([11]; Postemergence, 8 g ai/ha): 60
- Plant response rating, Crabgrass, Large ([11]; Postemergence, 16 g ai/ha): 65
- Plant response rating, Crabgrass, Large ([11]; Postemergence, 31 g ai/ha): 75
- Plant response rating, Crabgrass, Large ([11]; Postemergence, 62 g ai/ha): 80
- Plant response rating, Quackgrass ([12]; 16 g ai/ha, Preemergence): 0
- Plant response rating, Quackgrass ([12]; 31 g ai/ha, Preemergence): 20
- Plant response rating, Quackgrass ([12]; 62 g ai/ha, Preemergence): 65
- Plant response rating, Quackgrass ([12]; Postemergence, 8 g ai/ha): 0
- Plant response rating, Quackgrass ([12]; Postemergence, 16 g ai/ha): 30
- Plant response rating, Quackgrass ([12]; Postemergence, 31 g ai/ha): 30
- Plant response rating, Quackgrass ([12]; Postemergence, 62 g ai/ha): 50
- Plant response rating, Sandbur, S. ([13]; 16 g ai/ha, Preemergence): 15
- Plant response rating, Sandbur, S. ([13]; 31 g ai/ha, Preemergence): 20
- Plant response rating, Sandbur, S. ([13]; 62 g ai/ha, Preemergence): 90
- Plant response rating, Sandbur, S. ([13]; Postemergence, 8 g ai/ha): 0
- Plant response rating, Sandbur, S. ([13]; Postemergence, 16 g ai/ha): 70
- Plant response rating, Sandbur, S. ([13]; Postemergence, 31 g ai/ha): 75
- Plant response rating, Sandbur, S. ([13]; Postemergence, 62 g ai/ha): 75
- Plant response rating, Surinam Grass ([14]; 16 g ai/ha, Preemergence): 20
- Plant response rating, Surinam Grass ([14]; 31 g ai/ha, Preemergence): 95
- Plant response rating, Surinam Grass ([14]; 62 g ai/ha, Preemergence): 95
- Plant response rating, Surinam Grass ([14]; Postemergence, 8 g ai/ha): 20
- Plant response rating, Surinam Grass ([14]; Postemergence, 16 g ai/ha): 50
- Plant response rating, Surinam Grass ([14]; Postemergence, 31 g ai/ha): 50
- Plant response rating, Surinam Grass ([14]; Postemergence, 62 g ai/ha): 75
